Test results taken from US6054282A, “Method for detecting biological interactions especially in receptor binding assays” (Zeneca Limited, priority 1993, dated 2000).

System: human calcitonin receptor
Assay: Calcitonin receptor radial partition binding assay, displacement of (3-[125I]iodotyrosyl-22) salmon calcitonin
Conditions: 1 micromolar salmon calcitonin; MEL cell membranes with cloned human calcitonin receptor; room temperature, 40 minutes; FIG. 3
Description: The lysate was transferred to a glass/Teflon homogeniser and given 10 strokes to ensure cell disruption. The homogenate was centrifuged at 3,000 rpm (1100 g) for 10 minutes at 4 deg.C. […] The low-speed supernatant was removed, and the pellet re-suspended in 10 ml of homogenisation buffer and dispersed with 3×10 second treatments with the Polytron homogeniser, followed by low-speed centifugation as described above. The supernatants from both spins were combined. This was then centrifuged for 30 minutes at 33,000 rpm (100,000 g) at 4 deg C. in an L7 Ultracentrifuge (Beckman) using a Ti75 head. The pellet was re-suspended in 20 mM HEPES, pH 7.4, and re-centrifuged. This pellet was then re-suspended as before and treated with 10 strokes of the glass/Teflon homogeniser.
Protein determination was by the […] method of the Pierce Chemical Co., using their recommended protocol and bovine serum albumin (BSA) as a standard. Membranes were diluted to a stock concentration of 0.08 mg/ml protein, and stored at -70 deg. C.
To a 30×43 cm glass fibre filter mat (Tomtec RG) was added 4 microlitres of receptor preparation to 2,304 positions in a rectangular array. This was allowed to dry for 2 hours at room temperature. […]
The mat was allowed to dry completely and was exposed to a storage phosphor screen (Molecular Dynamics) for 3 hours and analysed using a PhosphorImager SF (Molecular Dynamics).

- inhibition of binding of [125I] salmon calcitonin (central spot, PhosphorImager): full inhibition of binding
Substance: calcitonin [salmon calcitonin]
